Experimental data published in article PMC9235362 (Journal of medicinal chemistry, 2021).

Experiments:
[1] = test system: 5-HT1A receptors; conditions: cited from earlier work
[2] = molecular target: T1, human 5-HT2B receptors (Homo sapiens, UniProt P41595); test: 5-HT2B receptor phosphoinositide hydrolysis; assay type: cell-based; conditions: for 5-HT2B E/Imax (Imax): Imax is the percent maximum SB 206553, inverse agonist, response, value (SEM), N.A. = no activation or inactivation up to 30 μM; for In vitro functional activity at human 5-HT2BRs: phosphoinositide hydrolysis assay
T1 sequence (P41595 whole entry): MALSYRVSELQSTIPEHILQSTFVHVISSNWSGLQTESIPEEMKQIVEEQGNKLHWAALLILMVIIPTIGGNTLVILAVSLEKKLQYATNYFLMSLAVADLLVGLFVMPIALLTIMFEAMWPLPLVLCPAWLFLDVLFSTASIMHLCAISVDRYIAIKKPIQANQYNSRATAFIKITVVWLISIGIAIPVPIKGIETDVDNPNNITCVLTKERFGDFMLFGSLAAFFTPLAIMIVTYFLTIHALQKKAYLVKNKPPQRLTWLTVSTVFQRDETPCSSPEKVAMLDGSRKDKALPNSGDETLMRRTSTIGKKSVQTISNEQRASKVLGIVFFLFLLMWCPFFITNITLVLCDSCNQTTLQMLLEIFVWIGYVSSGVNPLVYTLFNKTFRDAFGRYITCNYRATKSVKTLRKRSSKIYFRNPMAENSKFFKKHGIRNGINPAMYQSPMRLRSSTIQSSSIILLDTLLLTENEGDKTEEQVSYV

[3] = molecular target: T2, 5-HT3Rs (Homo sapiens, UniProt P46098); test: Radioligand competition binding at 5-HT3Rs
T2 sequence (P46098 24-478): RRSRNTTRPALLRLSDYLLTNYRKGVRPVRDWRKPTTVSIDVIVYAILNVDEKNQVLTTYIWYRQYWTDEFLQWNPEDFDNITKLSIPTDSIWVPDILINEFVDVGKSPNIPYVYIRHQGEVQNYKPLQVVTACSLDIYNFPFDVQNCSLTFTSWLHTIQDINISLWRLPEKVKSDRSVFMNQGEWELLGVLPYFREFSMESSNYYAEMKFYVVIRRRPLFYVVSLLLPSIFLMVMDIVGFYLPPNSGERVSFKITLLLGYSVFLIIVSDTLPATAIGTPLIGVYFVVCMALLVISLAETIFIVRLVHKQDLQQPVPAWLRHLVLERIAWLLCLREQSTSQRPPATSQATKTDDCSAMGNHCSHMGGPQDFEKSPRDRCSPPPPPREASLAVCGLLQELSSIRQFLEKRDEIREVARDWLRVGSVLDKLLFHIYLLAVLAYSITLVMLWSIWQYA

[4] = molecular target: T1, human 5-HT2B receptors; assay type: binding; conditions: 100 nM alkaloid; [125I](±)DOI; CHO-K1 cells
[5] = molecular target: adrenergic α1D receptors; conditions: read-out: Ki adrenergic α1D receptors; cited from earlier work
[6] = test system: hMOR; conditions: BRET G protein activation assay, cited from earlier work
[7] = molecular target: T3, human 5-HT1ARs (Homo sapiens, UniProt P08908); test: Radioligand competition binding at human 5-HT1ARs; conditions: present study versus 540 nM of ref 13
T3 sequence (P08908 1-422): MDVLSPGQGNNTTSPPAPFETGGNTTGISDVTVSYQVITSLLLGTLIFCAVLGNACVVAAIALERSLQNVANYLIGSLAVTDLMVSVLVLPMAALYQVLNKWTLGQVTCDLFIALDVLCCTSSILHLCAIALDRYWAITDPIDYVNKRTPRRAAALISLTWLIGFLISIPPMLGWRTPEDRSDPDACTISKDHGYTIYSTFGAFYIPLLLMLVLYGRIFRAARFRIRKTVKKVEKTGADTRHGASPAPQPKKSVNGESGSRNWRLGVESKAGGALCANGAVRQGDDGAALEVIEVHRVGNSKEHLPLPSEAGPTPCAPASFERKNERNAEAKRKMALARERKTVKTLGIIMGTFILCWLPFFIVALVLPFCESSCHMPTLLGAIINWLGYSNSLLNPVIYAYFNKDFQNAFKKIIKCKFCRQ

[8] = molecular target: human 5-HT1A receptor; conditions: read-out: Ki human 5-HT1A receptor orthosteric binding site; cited from earlier work
[9] = molecular target: T3, human 5-HT1ARs; test: In vitro 5-HT1A receptor cAMP signaling; assay type: cell-based; conditions: for 5-HT1A E/Imax: Emax is the percent maximum serotonin, agonist, response, value (SEM), N.A. = no activation or inactivation up to 30 μM
[10] = i.v., male rats

C/C=C1/CN2CCc3c([nH]c4ccccc34)[C@@H]2C[C@@H]1/C(=C/OC)C(=O)OC [Geissoschizine methyl ether]
Activity at 5-HT1A receptors [1]: potent antagonist

Cn1ccc2cc3c(cc21)CCN3C(=O)Nc1cccnc1 [SB 206553, reference compound]
EC50 [2]: 0.0153 µM | 5-HT2B E/Imax (Imax) [2]: 100%

CC[C@@H]1CN2CCc3c([nH]c4ccccc34)[C@@H]2C[C@@H]1/C(=C\OC)C(=O)OC [corynantheidine]
Percent displacement of radioligand, 5-HT3 ([3]; 100 nM alkaloid): 6.2% | Percent displacement of radioligand, 5-HT3 ([3]; 10,000 nM alkaloid): 6.8% | Percent displacement of radioligand, 5-HT2B [4]: 14.8% | Ki [5]: 0.041 µM

CC[C@@H]1CN2CCc3c([nH]c4cccc(O)c34)[C@@H]2C[C@@H]1/C(=C\OC)C(=O)OC [9-hydroxycorynantheidine]
Percent displacement of radioligand, 5-HT3 ([3]; 100 nM alkaloid): −1.3% | Percent displacement of radioligand, 5-HT3 ([3]; 10,000 nM alkaloid): 7.3% | Percent displacement of radioligand, 5-HT2B [4]: 5.2%

CC[C@H]1CN2CCc3c([nH]c4cccc(OC)c34)[C@@H]2C[C@@H]1/C(=C\OC)C(=O)OC [speciogynine, Methyl(E)-2-((2S,3R,12bS)-3-ethyl-8-methoxy-1,2,3,4,6,7,12,12b-octahydroindolo[2,3-a]quinolizin-2-yl)-3-methoxyacrylate]
EC50 [2]: 2.02 µM | 5-HT2B E/Imax (Imax) [2]: 24.8 (6.9) % | In vitro functional activity at human 5-HT2BRs [2]: no agonist activity | Functional activity at hMOR [6]: low-potency, competitive antagonists | Affinity for 5-HT1ARs relative to previously reported value [7]: > 10 fold | Ki [8]: 0.54 µM

CC[C@H]1CN2CCc3c([nH]c4cccc(O)c34)[C@@H]2C[C@@H]1/C(=C\OC)C(=O)OC [9-O-desmethylspeciogynine (gambirine), Methyl(E)-2-((2S,3R,12bS)-3-ethyl-8-hydroxy-1,2,3,4,6,7,12,12b-octahydroindolo[2,3-a]quinolizin-2-yl)-3-methoxyacrylate]
EC50 [2]: 1.47 µM | 5-HT2B E/Imax (Imax) [2]: 45 (14.3) % | EC50 [9]: 0.838 µM | 5-HT1A E/Imax [9]: 99 (0.08) %

O=C1c2ccccc2S(=O)(=O)N1CCCCN1CCN(c2ncccn2)CC1 [ipsapirone, reference compound]
5-HT1A E/Imax [9]: 82 (0.1) %

CC[C@@H]1CN2CCc3c([nH]c4cccc(OC)c34)[C@H]2C[C@@H]1/C(=C\OC)C(=O)OC [speciociliatine]
Functional activity at hMOR [6]: low-potency, competitive antagonists

Methyl(4S,4aR,13bS,14aS)-4-methyl-4a,5,7,8,13,13b,14,14a-octahydro-4H-indolo[2,3-a]pyrano[3,4-g]quinolizine-1-carboxylate [ajmalicine]
Percent displacement of radioligand, 5-HT3 ([3]; 100 nM alkaloid): −2.5% | Percent displacement of radioligand, 5-HT3 ([3]; 10,000 nM alkaloid): 1.8% | Percent displacement of radioligand, 5-HT2B [4]: 6.2% | Ki [8]: 0.42 µM

NCCc1c[nH]c2ccc(O)cc12 [serotonin, reference compound]
5-HT1A E/Imax [9]: 100%

C=C[C@H]1CN2CCc3c([nH]c4cccc(OC)c34)[C@@H]2C[C@@H]1/C(=C\OC)C(=O)OC [paynantheine, Methyl(E)-3-methoxy-2-((2S,3R,12bS)-8-methoxy-3-vinyl-1,2,3,4,6,7,12,12b-octahydroindolo[2,3-a]quinolizin-2-yl)acrylate]
In vitro functional activity at human 5-HT2BRs [2]: no agonist activity | Percent displacement of radioligand, 5-HT3 ([3]; 100 nM alkaloid): −9.8% | Percent displacement of radioligand, 5-HT3 ([3]; 10,000 nM alkaloid): −0.8% | Functional activity at hMOR [6]: low-potency, competitive antagonists

C=C[C@H]1CN2CCc3c([nH]c4cccc(O)c34)[C@@H]2C[C@@H]1/C(=C\OC)C(=O)OC [9-O-desmethylpaynantheine (gambireine), Methyl(E)-2-((2S,3R,12bS)-8-hydroxy-3-vinyl-1,2,3,4,6,7,12,12b-octahydroindolo[2,3-a]quinolizin-2-yl)-3-methoxyacrylate]
EC50 [2]: 2.34 µM | 5-HT2B E/Imax (Imax) [2]: 38 (10.3) % | EC50 [9]: 0.865 µM | 5-HT1A E/Imax [9]: 100 (0.08) %

CC[C@@H]1CN2CCc3c([nH]c4cccc(OC)c34)[C@@H]2C[C@@H]1/C(=C\OC)C(=O)OC [mitragynine]
Dose-normalized exposure (AUCinf/dose) relative to paynantheine [10]: 3.6 fold | Dose-normalized exposure (AUCinf/dose) relative to speciogynine [10]: 1.7 fold
